Data taken from ChEMBL document CHEMBL6177946, “Design, synthesis and biological evaluation of Streptazolin analogs as anti-inflammatory agents” (Bioorg Med Chem Lett, 2025).
Calls of active or inactive are those of the source. The rule behind the calls is not given here.

Columns and labels:
Escherichia coli = experiment: Antibacterial activity against Escherichia coli assessed as inhibition of bacterial growth at 100 uM; assay type: functional, organism-based
Staphylococcus aureus = experiment: Antibacterial activity against Staphylococcus aureus assessed as inhibition of bacterial growth at 100 uM; assay type: functional, organism-based
Pseudomonas aeruginosa = experiment: Antibacterial activity against Pseudomonas aeruginosa assessed as inhibition of bacterial growth at 100 uM; assay type: functional, organism-based
Bacillus subtilis = experiment: Antibacterial activity against Bacillus subtilis assessed as inhibition of bacterial growth at 100 uM; assay type: functional, organism-based
RAW264.7 [1] = experiment: Anti-inflammatory activity against LPS-induced mouse RAW264.7 cells assessed as inhibition of NO production at 100 uM; assay type: functional, cell-based
RAW264.7 [2] = experiment: Anti-inflammatory activity against LPS-induced mouse RAW264.7 cells assessed as inhibition of TNF-alpha production at 100 uM by ELISA; assay type: functional
[3] = Stability of the compound in dichloromethane measured after 2 months; assay type: physicochemical; conditions: 1460 h
RAW264.7 [4] = experiment: Cytotoxicity against mouse RAW264.7 cells assessed as effect on cell viability at 100 uM; assay type: toxicity, cell-based; conditions: raw264.7, 100 µM
RAW264.7 [5] = experiment: Anti-inflammatory activity against LPS-induced mouse RAW264.7 cells assessed as inhibition of IL-1 beta production at 100 uM by ELISA; assay type: functional
RAW264.7 [6] = experiment: Anti-inflammatory activity against LPS-induced mouse RAW264.7 cells assessed as inhibition of NO production; assay type: functional, cell-based
RAW264.7 [7] = experiment: Pro-inflamamtory activity in LPS-induced mouse RAW264.7 cells assessed as increase in NO production at 100 uM; assay type: functional, cell-based

Question: With `C/C=C1/C2=CCCN3C(=O)O[C@H]([C@H]1OC(=O)/C=C/c1ccccc1)[C@H]23` as the compound, how does the Activity (Escherichia coli) read?
Answer: inactive

Question: And the Activity (Staphylococcus aureus)?
Answer: inactive

Question: And the Activity (Pseudomonas aeruginosa)?
Answer: inactive

Question: What about the Activity (Bacillus subtilis) of the same compound?
Answer: inactive

Question: And the Activity (RAW264.7 [1])?
Answer: Active

Question: Which inhibition at 100 µM (RAW264.7 [2]) does the source give for `C/C=C1/C2=CCCN3C(=O)O[C@H]([C@H]1OC(=O)CCCC)[C@H]23` here?
Answer: ≤ 60%

Question: And the Activity (Escherichia coli)?
Answer: inactive

Question: And the Stability [3]?
Answer: Stable

Question: What about the Activity (Staphylococcus aureus) of the same compound?
Answer: inactive

Question: And the Activity (Pseudomonas aeruginosa)?
Answer: inactive

Question: And the Activity (RAW264.7 [4])?
Answer: Non-toxic

Question: And the inhibition at 100 µM (RAW264.7 [5])?
Answer: > 90%

Question: What about the Activity (RAW264.7 [6]) of the same compound?
Answer: Dose-dependent-effect

Question: And the IC50 (RAW264.7 [6])?
Answer: 8.8 µM

Question: And the Activity (Bacillus subtilis)?
Answer: inactive

Question: What about the Activity (RAW264.7 [1]) of the same compound?
Answer: Active

Question: Which Activity (Escherichia coli) does the source give for `C/C=C1/C2=CCCN3C(=O)O[C@H]([C@H]1OC(=O)CC)[C@H]23` here?
Answer: inactive

Question: What about the Activity (Staphylococcus aureus) of the same compound?
Answer: inactive

Question: What about the Activity (Pseudomonas aeruginosa) of the same compound?
Answer: inactive

Question: What about the Activity (Bacillus subtilis) of the same compound?
Answer: inactive

Question: And the Activity (RAW264.7 [1])?
Answer: inactive

Question: Which Activity (Escherichia coli) does the source give for `C/C=C1/C2=CCCN3C(=O)O[C@H]([C@H]1OS(=O)(=O)CCC)[C@H]23` here?
Answer: inactive

Question: And the Activity (Staphylococcus aureus)?
Answer: inactive

Question: And the Activity (Pseudomonas aeruginosa)?
Answer: inactive

Question: What about the Activity (Bacillus subtilis) of the same compound?
Answer: inactive

Question: What about the Activity (RAW264.7 [1]) of the same compound?
Answer: Active

Question: Which Activity (Escherichia coli) does the source give for `C/C=C1/C2=CCCN3C(=O)O[C@H]([C@H]1OC(=O)C1CCCCC1)[C@H]23` here?
Answer: inactive

Question: What about the Activity (Staphylococcus aureus) of the same compound?
Answer: inactive

Question: What about the Activity (Pseudomonas aeruginosa) of the same compound?
Answer: inactive

Question: What about the Activity (Bacillus subtilis) of the same compound?
Answer: inactive

Question: What about the Activity (RAW264.7 [1]) of the same compound?
Answer: Active

Question: Which Activity (Escherichia coli) does the source give for `C/C=C1/C2=CCCN3C(=O)O[C@H]([C@H]1OC(=O)C(C)(C)C)[C@H]23` here?
Answer: inactive

Question: And the Activity (Staphylococcus aureus)?
Answer: inactive

Question: And the Activity (Pseudomonas aeruginosa)?
Answer: inactive

Question: What about the Activity (Bacillus subtilis) of the same compound?
Answer: inactive

Question: What about the Activity (RAW264.7 [1]) of the same compound?
Answer: Active

Question: What does the source list for `C/C=C1/C2=CCCN3C(=O)O[C@H]([C@H]1OC(=O)CCC)[C@H]23`?
Answer: Activity (Escherichia coli): inactive; Activity (Staphylococcus aureus): inactive; Activity (Pseudomonas aeruginosa): inactive; Activity (Bacillus subtilis): inactive; Activity (RAW264.7 [1]): inactive

Question: With `C/C=C1/C2=CCCN3C(=O)O[C@H]([C@@H]1Cl)[C@H]23` as the compound, how does the Activity (Escherichia coli) read?
Answer: inactive

Question: What about the Activity (Staphylococcus aureus) of the same compound?
Answer: inactive

Question: What about the Activity (Pseudomonas aeruginosa) of the same compound?
Answer: inactive

Question: What about the Activity (Bacillus subtilis) of the same compound?
Answer: inactive

Question: Which results are given for `C/C=C1/C2=CCCN3C(=O)O[C@H]([C@H]1OC(=O)CCCCCCCCCCC)[C@H]23`?
Answer: Activity (Escherichia coli): inactive; Activity (Staphylococcus aureus): inactive; Activity (Pseudomonas aeruginosa): inactive; Activity (Bacillus subtilis): inactive; Activity (RAW264.7 [1]): inactive

Question: What does the source list for `C/C=C1/C2=CCCN3C(=O)O[C@H]([C@H]1OC(=O)c1ccc(C)cc1)[C@H]23`?
Answer: Activity (Escherichia coli): inactive; Activity (Staphylococcus aureus): inactive; Activity (Pseudomonas aeruginosa): inactive; Activity (Bacillus subtilis): inactive; Activity (RAW264.7 [1]): Active

Question: With `C/C=C1/C2=CCCN3C(=O)O[C@H]([C@H]1OC(=O)C(C)C)[C@H]23` as the compound, how does the Activity (Escherichia coli) read?
Answer: inactive

Question: What about the Activity (Staphylococcus aureus) of the same compound?
Answer: inactive

Question: And the Activity (Pseudomonas aeruginosa)?
Answer: inactive

Question: And the Activity (Bacillus subtilis)?
Answer: inactive

Question: And the Activity (RAW264.7 [1])?
Answer: inactive

Question: With `C/C=C1/C2=CCCN3C(=O)O[C@H]([C@H]1O)[C@H]23` as the compound, how does the Activity (RAW264.7 [7]) read?
Answer: Active

Question: And the Activity (Escherichia coli)?
Answer: inactive

Question: And the Activity (Staphylococcus aureus)?
Answer: inactive

Question: And the Activity (Pseudomonas aeruginosa)?
Answer: inactive

Question: What about the Activity (Bacillus subtilis) of the same compound?
Answer: inactive

Question: Which Activity (Escherichia coli) does the source give for `C/C=C1/C2=CCCN3C(=O)O[C@H]([C@H]1OC(=O)c1ccccc1)[C@H]23` here?
Answer: inactive

Question: And the Activity (Staphylococcus aureus)?
Answer: inactive

Question: And the Activity (Pseudomonas aeruginosa)?
Answer: inactive

Question: And the Activity (Bacillus subtilis)?
Answer: inactive

Question: What about the Activity (RAW264.7 [1]) of the same compound?
Answer: Active

Question: With `C/C=C1/C2=CCCN3C(=O)O[C@H]([C@H]1OC(=O)CCCCCCCCC)[C@H]23` as the compound, how does the Activity (RAW264.7 [7]) read?
Answer: Active

Question: What about the Activity (Escherichia coli) of the same compound?
Answer: inactive

Question: What about the Activity (Staphylococcus aureus) of the same compound?
Answer: inactive

Question: And the Activity (Pseudomonas aeruginosa)?
Answer: inactive

Question: What about the Activity (Bacillus subtilis) of the same compound?
Answer: inactive

Question: What about the Activity (RAW264.7 [1]) of the same compound?
Answer: inactive

Question: With `C/C=C1/C2=CCCN3C(=O)O[C@H]([C@H]1OS(C)(=O)=O)[C@H]23` as the compound, how does the Activity (Escherichia coli) read?
Answer: inactive

Question: What about the Activity (Staphylococcus aureus) of the same compound?
Answer: inactive

Question: What about the Activity (Pseudomonas aeruginosa) of the same compound?
Answer: inactive

Question: And the Activity (Bacillus subtilis)?
Answer: inactive

Question: What about the Activity (RAW264.7 [1]) of the same compound?
Answer: Active

Question: Which results are given for `C/C=C1/C2=CCCN3C(=O)O[C@H]([C@H]1OC(C)=O)[C@H]23`?
Answer: Activity (Escherichia coli): inactive; Activity (Staphylococcus aureus): inactive; Activity (Pseudomonas aeruginosa): inactive; Activity (Bacillus subtilis): inactive; Activity (RAW264.7 [1]): inactive
